Here are results for 5 molecules from patent US11008346B2, “Beta-lactamase inhibitors” (priority 2014, dated 2021).

The subject of assay [1] is E. coli ESBL4 expressing CTX-M-15. The assay is described as follows: broth microdilution MIC, E. coli CTX-M-15. In kind it is cell-based. Particulars: Fixed CAZ (ceftazidime) 4 μg/mL. From the text:
(§1) To determine the ability of test compounds to potentiate the inhibition of the growth of bacterial strains that produce beta-lactamase enzymes, classic cell based broth microdilution MIC assays were employed. Six bacteria strains producing beta-lactamase enzymes were used: E. coli expressing the Class A Extended Spectrum Beta-Lactamase (ESBL) CTX-M-15, E. cloacae expressing the Class C P99, K. pneumoniae expressing the Class A carbapenemase KPC-3, P. aeruginosa expressing the Class B carbapenemase VIM-2, K pneumoniae expressing the class A carbapenemase KPC-2 and the class B carbapenemase VIM-4, and S. aureus producing the Class A penicillinase PC-1. The assay was conducted in Cation Adjusted Mueller Hinton Broth (CAMHB, BD #212322, BD Diagnostic Systems, Sparks, Md.). Bacteria strains were grown for 3-5 hours in CAMBH broth. Test compounds were added to a microtiter plate in 2-fold serial dilutions in CAMHB in a final concentration range of 32 μg/mL to 0.25 μg/ml. An overlay of CAMHB containing a Beta-lactam was added to the compounds at a final static concentration of 4 μg/ml. […] In addition to the titration of test compounds the MICs of a panel of control beta-lactams is also tested to ensure the strains are behaving consistently from test to test. Once the test compound and antibiotics are added the plates can be inoculated according to CLSI broth microdilution method. After inoculation the plates are incubated for 16-20 hours at 37° C., then the Minimal Inhibitory Concentration (MIC) of the test compound is determined visually.
(§2) Using the methodology described above, examples of the current invention were evaluated for their ability to inhibit the growth of β-lactamase-producing bacteria in the presence of a β-lactam antibiotic.
(§3) Representative results are shown in Table 4 where A represents an MIC of the fixed β-lactam antibiotic in the presence of >32 µg/mL of a β-lactamase inhibitor of exemplary compounds, B represents the MIC in the presence of between 8 and 32 µg/mL of a β-lactamase inhibitor of exemplary compounds, and C represents the MIC in the presence of ≤4 µg/mL of a β-lactamase inhibitor of exemplary compounds. NT=Not Tested.

The target of assay [2] is T1, KPC-2 β-lactamase (Klebsiella pneumoniae, UniProt Q9F663).
T1 construct: made in house; host or cells: E. coli BL21(DE3)
T1 sequence (Q9F663 25-293, looked up): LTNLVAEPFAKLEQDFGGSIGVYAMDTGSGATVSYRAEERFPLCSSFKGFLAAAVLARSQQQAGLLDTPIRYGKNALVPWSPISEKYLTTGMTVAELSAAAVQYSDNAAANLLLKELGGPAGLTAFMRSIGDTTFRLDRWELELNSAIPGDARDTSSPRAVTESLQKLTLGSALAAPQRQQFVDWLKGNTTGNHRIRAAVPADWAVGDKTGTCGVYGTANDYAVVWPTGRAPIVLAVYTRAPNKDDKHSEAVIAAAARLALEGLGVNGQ
Description: β-lactamase enzyme inhibition, KPC-2. In kind it is biochemical. Particulars: imipenem substrate, 300 nm; 15 min at 37° C. preincubation; read-out: IC50 KPC-2 (Class A). On the procedure: (§4) For SHV-5, Kpc-2, p99AmpC and OXA-1 β-lactamases, E. coli BL21(DE3) bacterial cells carrying expression plasmids (expressed as native untagged proteins) for the individual β-lactamases were grown in 1 L of Superbroth (Teknova Inc. Hollister, Calif.) supplemented with 100 μg/ml kanamycin selection and 1×5052 (0.5% glycerol, 0.05% glucose and 0.2% α-lactose) at 35° C. for 18-20 hours. Cells were harvested by centrifugation (4,000×g, 4° C., 20 min), resuspended in 50 ml of 10 mM HEPES pH 7.5 ( 1/20 of the initial volume). The cells were lysed by sonication (5 pulses of 45 seconds) at 45 W on ice. The lysates were clarified by centrifugation at 10,000×g for 40 minutes at 4° C. Samples were diluted 5-fold in 50 mM sodium acetate pH 5.0, stored overnight at 4° C., after which they were centrifuged at 10,000×g for 30 minutes to clarify, and filtered through 0.45 μm filters. The samples were loaded onto a 5 ml Capto S sepharose cation exchange column (GE Healthcare) pre-equilibrated with 50 mM sodium acetate pH 5.0. The column was washed with 5 column volumes of 50 mM sodium acetate pH 5.0 to wash out unbound protein and a linear gradient of NaCl (0 to 500 mM) was used to elute the protein (over 16 CV) from the column. Fractions were assayed for […] activity using Centa (Calbiochem, Gibbstown, N.J.) or Nitrocefin (EMD Millipore chemicals, Darmstadt, Germany) as a reporter β-lactamase substrate for activity in the isolated fractions. Active fractions were pooled, concentrated and further purified by gel filtration chromatography on a Superdex 75 prep grade gel filtration column (GE Healthcare, Piscataway, N.J.) pre-equilibrated in 50 mM Hepes pH 7.5, 150 mM NaCl. Active fractions were pooled, concentrated, and quantitated by BCA protein determination (Thermo Scientific, Rockford, Ill.), dialyzed into PBS and frozen at −80° C. in 20% glycerol until use.
(§5) An equal volume of diluted enzyme stock was added, and the plates were incubated at 37° C. for 15 min. Nitrocefin was used as substrate for p99 AmpC, VIM-2 and OXA-1 and dispensed into each well at a final concentration of 100 μM. Absorbance at 486 nm was immediately monitored for 10 min using a Biotek Powerwave XS2 microplate spectrophotometer using the GEN5 software package (Biotek Instruments, Winooski Vt.). In an analogous fashion, imipenem was used as substrate for KPC-2 and Cefotaxime was used for SHV-5, while changes in absorbance upon hydrolysis of the β-lactam ring were monitored at 300 nm and 260 nm respectively in UV-transparent 96-well microtiter assay plates. Maximum rates of hydrolysis were compared to those in control wells (without inhibitors), and percentages of enzyme inhibition were calculated for each concentration of inhibitor. The concentration of inhibitor needed to reduce the initial rate of hydrolysis of substrate by 50% (IC50) was calculated as the residual activity of β-lactamase at 486 nm using GraFit version 7 kinetics software package (Erithacus Software, Surrey, UK).
(§6) Using the methodology described above, examples of the current invention were evaluated for their ability to inhibit β-lactamase enzymes from all four Ambler classifications (A through D). […] NT=Not tested.

Assay [3] has as its system K. pneumoniae 156319 expressing KPC-3. The assay is described as follows: broth microdilution MIC, K. pneumoniae KPC-3. The class given is cell-based. Particulars: Fixed Mero (meropenem) 4 μg/mL.
Description: as §1, §2, §3

Assay [4] concerns E. cloacae 144200 expressing Class C P99 AmpC. Description: broth microdilution MIC, E. cloacae P99. Particulars: Fixed CAZ (ceftazidime) 4 μg/mL. The class given is cell-based.
Description: as §1, §2, §3

In assay [5] the test system is K. pneumoniae A-1797 expressing KPC-2 and VIM-4. The assay is described as follows: broth microdilution MIC, K. pneumoniae KPC-2 and VIM-4. The class given is cell-based. Particulars: Fixed Mero (meropenem) 4 μg/mL.
Description: as §1, §2, §3

Assay [6] concerns the target T2, OXA-1 β-lactamase (Escherichia coli, UniProt P13661).
T2 construct: made in house; host or cells: E. coli BL21(DE3)
Description: β-lactamase enzyme inhibition, OXA-1. In kind it is biochemical. Particulars: Nitrocefin 100 μM, 486 nm; 15 min at 37° C. preincubation; read-out: IC50 OXA-1 (Class D). On the procedure:
as §4, §5, §6

The target in assay [7] is T3, SHV-5 β-lactamase (Klebsiella pneumoniae, UniProt P0A3M1).
T3 construct: made in house; host or cells: E. coli BL21(DE3)
T3 sequence (P0A3M1 22-286): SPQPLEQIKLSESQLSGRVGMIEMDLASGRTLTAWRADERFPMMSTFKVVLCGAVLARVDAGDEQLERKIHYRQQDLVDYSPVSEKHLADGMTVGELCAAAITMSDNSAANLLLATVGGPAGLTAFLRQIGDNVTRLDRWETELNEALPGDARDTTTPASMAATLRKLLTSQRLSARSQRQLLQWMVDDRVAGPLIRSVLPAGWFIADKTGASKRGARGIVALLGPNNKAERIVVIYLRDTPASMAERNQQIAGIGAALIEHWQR
Description: β-lactamase enzyme inhibition, SHV-5. In kind it is biochemical. On the procedure:
as §4, §5, §6

Assay [8] addresses T4, p99 AmpC β-lactamase (Enterobacter cloacae, UniProt P05364).
T4 construct: made in house; host or cells: E. coli BL21(DE3)
Description: β-lactamase enzyme inhibition, p99 AmpC. In kind it is biochemical. How it is done: as §4, §5
Using the methodology described above, examples of the current invention were evaluated for their ability to inhibit β-lactamase enzymes from all four Ambler classifications (A through D).

In assay [9] the target is T5, VIM-2 metallo β-lactamase (Pseudomonas aeruginosa, UniProt Q9K2N0).
T5 construct: made in house; host or cells: E. coli BL21(DE3)
The assay is described as follows: β-lactamase enzyme inhibition, VIM-2. Particulars: Nitrocefin 100 μM, 486 nm; 15 min at 37° C. preincubation; read-out: IC50 VIM-2 (Class B). In kind it is biochemical. On the procedure: For VIM-2 metallo β-lactamase, the procedure was identical with the following exceptions, first the protein was not pH adjusted to pH 5 with 50 mM sodium acetate. Second, the chromatography step was changed to a 5 ml Q sepharose anion exchange column pre-equilibrated with 50 mM Hepes pH 7.5, and elution of the protein was achieved by a linear gradient of NaCl (0-600 mM). Finally, the VIM-2 purification required a second run (3rd step) on the Q sepharose anion exchange column to achieve acceptable purity (>90%).
as §5, §6

T4 sequence (P05364 21-381): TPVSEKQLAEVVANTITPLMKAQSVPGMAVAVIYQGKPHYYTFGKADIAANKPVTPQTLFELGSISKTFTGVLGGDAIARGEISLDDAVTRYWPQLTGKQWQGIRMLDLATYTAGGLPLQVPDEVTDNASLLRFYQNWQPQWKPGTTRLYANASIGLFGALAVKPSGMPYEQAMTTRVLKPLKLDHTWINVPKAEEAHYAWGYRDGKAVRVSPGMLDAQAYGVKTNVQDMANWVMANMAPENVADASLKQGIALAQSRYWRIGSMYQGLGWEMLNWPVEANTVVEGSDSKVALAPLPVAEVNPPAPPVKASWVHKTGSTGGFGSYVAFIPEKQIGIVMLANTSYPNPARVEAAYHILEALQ
T2 sequence (P13661 26-276): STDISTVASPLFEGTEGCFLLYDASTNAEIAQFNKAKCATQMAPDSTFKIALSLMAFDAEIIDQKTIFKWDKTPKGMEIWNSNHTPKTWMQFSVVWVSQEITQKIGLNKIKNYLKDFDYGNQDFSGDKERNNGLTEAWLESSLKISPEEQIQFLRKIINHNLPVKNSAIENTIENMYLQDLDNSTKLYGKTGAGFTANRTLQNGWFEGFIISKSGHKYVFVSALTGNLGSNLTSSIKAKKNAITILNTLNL

Take `O=C(CCC(=O)c1ccccc1)N[C@H]1Cc2cccc(C(=O)O)c2OB1O` [Example 42, (R)-2-Hydroxy-3-(4-oxo-4-phenyl-butyrylamino)-3,4-dihydro-2H-benzo[e][1,2]oxaborinine-8-carboxylic acid]: the “MIC of exemplary compounds in presence of fixed β-lactams, E. coli ESBL4 CTX-M-15” value (“MIC … E. coli ESBL4 CTX-M-15” below) in [1] is on record as “C (C represents the MIC in the presence of ≤4 g/mL of a β-lactamase inhibitor)”. The IC50 in [2] is below 100 nM; in [6] it was below 100 nM; in assay [7] it was below 100 nM; in assay [8], below 100 nM; in assay [9], 0.1 to 1 µM. Moreover, in assay [3], the “MIC of exemplary compounds in presence of fixed β-lactams, K.P. 156319 KPC-3” value (from here on “MIC of exemplary compounds … K.P. 156319 KPC-3”) is “B (B represents the MIC in the presence of between 8 and 32 g/mL of a β-lactamase inhibitor)”. In addition, the “MIC of exemplary compounds in presence of fixed β-lactams, E. cl. 144200 p99 AmpC” value (“MIC … E. cl. 144200 p99 AmpC” for short) in assay [4] is “C (C represents the MIC in the presence of ≤4 g/mL of a β-lactamase inhibitor)”. For the same molecule, the “MIC of exemplary compounds in presence of fixed β-lactams, K.P. A-1797 KPC-2 VIM-4” value (shortened to “MIC … K.P. A-1797 KPC-2 VIM-4”) in assay [5] was “B (B represents the MIC in the presence of between 8 and 32 g/mL of a β-lactamase inhibitor)”.
Consider `CN(C)S(=O)(=O)CCC(=O)N[C@H]1Cc2cccc(C(=O)O)c2OB1O` [Example 55, (R)-3-(3-Dimethylsulfamoyl-propionylamino)-2-hydroxy-3,4-dihydro-2H-benzo[e][1,2]oxaborinine-8-carboxylic acid], for which the “MIC … E. coli ESBL4 CTX-M-15” value in [1] is recorded as “C (C represents the MIC in the presence of ≤4 g/mL of a β-lactamase inhibitor)”. Moreover, the IC50 is below 100 nM in assay [2], below 100 nM in assay [7], below 100 nM in [8] and 1 to 10 µM in assay [9]. In addition, the “MIC of exemplary compounds … K.P. 156319 KPC-3” value in assay [3] was “C (C represents the MIC in the presence of ≤4 g/mL of a β-lactamase inhibitor)”. Further, the “MIC … E. cl. 144200 p99 AmpC” value in assay [4] is “C (C represents the MIC in the presence of ≤4 g/mL of a β-lactamase inhibitor)”. The “MIC … K.P. A-1797 KPC-2 VIM-4” value in assay [5] was “B (B represents the MIC in the presence of between 8 and 32 g/mL of a β-lactamase inhibitor)”.
In the case of `O=C(CNC(=O)c1ccccc1)N[C@H]1Cc2cccc(C(=O)O)c2OB1O` [Example 60, (R)-3-(2-Benzoylamino-acetylamino)-2-hydroxy-3,4-dihydro-2H-benzo[e][1,2]oxaborinine-8-carboxylic acid], the “MIC … E. coli ESBL4 CTX-M-15” value in assay [1] was “C (C represents the MIC in the presence of ≤4 g/mL of a β-lactamase inhibitor)”. Also, the IC50 in [2] was below 100 nM; in assay [7], below 100 nM; in assay [8] it was below 100 nM; in assay [9], 10 to 100 µM. For the same molecule, the “MIC of exemplary compounds … K.P. 156319 KPC-3” value in [3] is “B (B represents the MIC in the presence of between 8 and 32 g/mL of a β-lactamase inhibitor)”. Moreover, the “MIC … E. cl. 144200 p99 AmpC” value in [4] was “C (C represents the MIC in the presence of ≤4 g/mL of a β-lactamase inhibitor)”. In addition, the “MIC … K.P. A-1797 KPC-2 VIM-4” value in [5] was “B (B represents the MIC in the presence of between 8 and 32 g/mL of a β-lactamase inhibitor)”.
`COC(=O)NCC(=O)N[C@H]1Cc2cccc(C(=O)O)c2OB1O` [Example 56, (R)-2-Hydroxy-3-(2-methoxycarbonylamino-acetylamino)-3,4-dihydro-2H-benzo[e][1,2]oxaborinine-8-carboxylicacid]: the “MIC … E. coli ESBL4 CTX-M-15” value in [1] is reported as “C (C represents the MIC in the presence of ≤4 g/mL of a β-lactamase inhibitor)”. The IC50 was 100 to 1000 nM in [2], below 100 nM in assay [7], below 100 nM in assay [8] and 1 to 10 µM in assay [9]. In addition, in assay [3], the “MIC of exemplary compounds … K.P. 156319 KPC-3” value is recorded as “C (C represents the MIC in the presence of ≤4 g/mL of a β-lactamase inhibitor)”. Moreover, the “MIC … E. cl. 144200 p99 AmpC” value in assay [4] is reported as “C (C represents the MIC in the presence of ≤4 g/mL of a β-lactamase inhibitor)”. Moreover, the “MIC … K.P. A-1797 KPC-2 VIM-4” value in assay [5] was “B (B represents the MIC in the presence of between 8 and 32 g/mL of a β-lactamase inhibitor)”.
Take `NS(=O)(=O)CCCC(=O)N[C@H]1Cc2cccc(C(=O)O)c2OB1O` [Example 53, (R)-2-Hydroxy-3-(4-sulfamoyl-butyrylamino)-3,4-dihydro-2H-benzo[e][1,2]oxaborinine-8-carboxylic acid]: the “MIC … E. coli ESBL4 CTX-M-15” value in assay [1] was “C (C represents the MIC in the presence of ≤4 g/mL of a β-lactamase inhibitor)”. The IC50 in [2] was below 100 nM; in assay [7], below 100 nM; in assay [8], below 100 nM; in assay [9], 10 to 100 µM. Also, the “MIC of exemplary compounds … K.P. 156319 KPC-3” value in assay [3] is “C (C represents the MIC in the presence of ≤4 g/mL of a β-lactamase inhibitor)”. In addition, the “MIC … E. cl. 144200 p99 AmpC” value in assay [4] is “C (C represents the MIC in the presence of ≤4 g/mL of a β-lactamase inhibitor)”. For the same molecule, in assay [5], the “MIC … K.P. A-1797 KPC-2 VIM-4” value is “B (B represents the MIC in the presence of between 8 and 32 g/mL of a β-lactamase inhibitor)”.
